Test results as given in patent US20260376293A1, “METHODS FOR STUDYING GPR158 PHARMACOLOGY AND IDENTIFICATION OF ITS LIGANDS” (UNIVERSITY OF FLORIDA RESEARCH FOUNDATION, INCORPORATED, priority 2022, published 2026).
Where two headings read alike, the source gives them in different places.

Target: T1, GPR158 (Homo sapiens, UniProt Q5T848)
T1 construct: GPR158 AC2 (1-775) was expressed and purified; Flag; made in house; host or cells: HEK293 GnTI- (BacMam virus)
T1 sequence (Q5T848 24-775): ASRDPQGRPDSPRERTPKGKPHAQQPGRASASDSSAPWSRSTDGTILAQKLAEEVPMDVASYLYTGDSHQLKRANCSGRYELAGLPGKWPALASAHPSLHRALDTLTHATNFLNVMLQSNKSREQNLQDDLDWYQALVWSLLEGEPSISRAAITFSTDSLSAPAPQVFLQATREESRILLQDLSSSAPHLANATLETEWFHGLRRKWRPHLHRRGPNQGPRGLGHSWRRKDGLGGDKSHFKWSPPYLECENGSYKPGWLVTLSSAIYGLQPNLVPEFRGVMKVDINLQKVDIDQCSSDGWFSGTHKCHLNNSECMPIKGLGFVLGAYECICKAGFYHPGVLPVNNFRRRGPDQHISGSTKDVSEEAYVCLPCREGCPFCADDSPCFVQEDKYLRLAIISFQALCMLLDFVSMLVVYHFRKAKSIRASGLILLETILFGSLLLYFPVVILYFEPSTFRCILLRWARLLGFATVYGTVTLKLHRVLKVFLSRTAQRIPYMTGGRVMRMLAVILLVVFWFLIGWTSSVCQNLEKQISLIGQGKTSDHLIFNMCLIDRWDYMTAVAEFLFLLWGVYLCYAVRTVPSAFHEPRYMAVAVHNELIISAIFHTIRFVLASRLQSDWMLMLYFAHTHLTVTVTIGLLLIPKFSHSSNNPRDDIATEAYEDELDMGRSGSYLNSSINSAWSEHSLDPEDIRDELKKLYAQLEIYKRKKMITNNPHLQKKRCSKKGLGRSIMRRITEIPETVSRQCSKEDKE
Assay: Isothermal Titration calorimetry (ITC) with purified GPR158
Format: binding
Details: purified GPR158-AC2, 23 °C
Description: FIGS. 9A-9H. Direct interaction of glycine with GPR158 A) Schematics of assay design for detecting glycine binding to GPR158 by flow cytometry. Cells transfected with GPR158 are incubated with FITC-glycine and fluorescence labeling of cells is detected by flow cytometry. B) Representative flow cytometry histogram showing distribution of cellular populations after sorting. C) Quantification of FITC-glycine binding detected in flow cytometry binding experiments. The median of fluorescence (MFI) is quantified and plotted. Error bars are s.e.m. values, N=3, **p<0.01, ****p<0.0001, two-way ANOVA. D) Schematics of the radioligand binding assay. E) Quantification of ^3H-glycine binding to membrane expressing GPR158. Count Per minute (CPM) are measured and plotted. Data shown mean of 4 independent experiments error bars are s.e.m. values, n=4. […] Data shown mean of 4 independent experiments error bars are s.e.m. values, n=4. G) Schematics of the assay design detecting glycine binding to GPR158 by Isothermal Titration calorimetry (ITC) with purified protein. H) Representative ITC binding profile showing glycine binding to GPR158. Control (thick line), GPR158 (thin line) I) Quantification of binding determined by fitting the integrated isotherm to an independent binding model.
FIGS. 10A-10D. Binding of Glycine to GPR158 in ITC experiments. […]

Kd (mean of 4 experimental runs, independent binding model, read-out: KD (ITC, mean)): 7.76 ± 3.66 µM | Kd (range across experiments, read-out: binding constants (KD) across experiments): 2 to 16 µM
Compound: NCC(=O)O [glycine]
